According to ChEMBL document CHEMBL5316339, “Discovery of a Series of Substituted 1H-((1,2,3-Triazol-4-yl)methoxy)pyrimidines as Brain Penetrants and Potent GluN2B-Selective Negative Allosteric Modulators” (J Med Chem, 2023):
Values after ≈ are worked out from the molar mass of the structure shown.

Key:
[1] = target: Glutamate receptor ionotropic, NMDA 2A (Homo sapiens, UniProt Q05586+Q12879); test: Inhibition of human GluN2A receptor by FLIPR assay
[2] = target: Glutamate receptor ionotropic, NMDA 2C (Homo sapiens, UniProt Q05586+Q14957); test: Inhibition of human GluN2C receptor by FLIPR assay
[3] = target: Glutamate receptor ionotropic, NMDA 2D (Homo sapiens, UniProt O15399+Q05586); test: Inhibition of human GluN2D receptor by FLIPR assay
[4] = target: Glutamate receptor ionotropic, NMDA 2B (Rattus norvegicus, UniProt Q00960); test: Displacement of 3-(3H) 1-(azetidin-1-yl)-2-(6- (4-fluoro-3-methyl-phenyl)pyrrolo-[…] pyridin-1yl)ethanone from GluN2B receptor in rat cortical membrane assessed as inhibition constant incubated for 2 hrs under shaking condition by liquid scintillator counter analysis; assay type: cell membranes, Cortex
[5] = target: Voltage-gated inwardly rectifying potassium channel KCNH2 (Homo sapiens, UniProt Q12809); test: Displacement of [3H]dofetilide from human ERG expressed in HEK293 cells; assay type: toxicity, cell-based
MDR1 (P-gp) = test: Efflux ratio of apparent permeability from basolateral to apical side over apical to basolateral side in MDCK-MDR1 cells at 5 uM incubated for 60 mins by LC-MS/MS analysis; assay type: ADME, cell-based, Canis lupus familiaris; conditions: dog
Cytochrome P450 1A2 = target: T1, Cytochrome P450 1A2 (Homo sapiens, UniProt P05177); test: Inhibition of CYP1A2 in human liver microsomes incubated for 10 mins by LC-MS/MS analysis; assay type: ADME, Microsome
T1 sequence (P05177 whole entry): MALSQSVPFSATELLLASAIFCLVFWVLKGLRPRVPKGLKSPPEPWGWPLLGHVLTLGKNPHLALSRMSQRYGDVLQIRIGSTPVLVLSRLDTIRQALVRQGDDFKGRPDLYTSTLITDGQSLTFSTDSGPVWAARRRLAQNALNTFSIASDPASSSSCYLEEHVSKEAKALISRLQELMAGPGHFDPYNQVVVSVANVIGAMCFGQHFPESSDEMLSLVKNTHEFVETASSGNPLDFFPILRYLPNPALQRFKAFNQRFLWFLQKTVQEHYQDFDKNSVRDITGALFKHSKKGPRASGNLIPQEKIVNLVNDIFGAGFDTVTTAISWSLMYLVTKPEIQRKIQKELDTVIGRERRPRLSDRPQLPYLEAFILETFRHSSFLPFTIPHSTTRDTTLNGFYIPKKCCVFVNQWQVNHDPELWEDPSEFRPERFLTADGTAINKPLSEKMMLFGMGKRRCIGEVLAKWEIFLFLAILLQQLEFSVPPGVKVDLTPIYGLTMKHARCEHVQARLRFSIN

Cytochrome P450 2C19 = Cytochrome P450 2C19 (Homo sapiens, UniProt P33261); test: Inhibition of CYP2C19 in human liver microsomes incubated for 10 mins by LC-MS/MS analysis; assay type: ADME, Microsome
Cytochrome P450 2C8 = target: T2, Cytochrome P450 2C8 (Homo sapiens, UniProt P10632); test: Inhibition of CYP2C8 in human liver microsomes incubated for 10 mins by LC-MS/MS analysis; assay type: ADME, Microsome
T2 sequence (P10632 whole entry): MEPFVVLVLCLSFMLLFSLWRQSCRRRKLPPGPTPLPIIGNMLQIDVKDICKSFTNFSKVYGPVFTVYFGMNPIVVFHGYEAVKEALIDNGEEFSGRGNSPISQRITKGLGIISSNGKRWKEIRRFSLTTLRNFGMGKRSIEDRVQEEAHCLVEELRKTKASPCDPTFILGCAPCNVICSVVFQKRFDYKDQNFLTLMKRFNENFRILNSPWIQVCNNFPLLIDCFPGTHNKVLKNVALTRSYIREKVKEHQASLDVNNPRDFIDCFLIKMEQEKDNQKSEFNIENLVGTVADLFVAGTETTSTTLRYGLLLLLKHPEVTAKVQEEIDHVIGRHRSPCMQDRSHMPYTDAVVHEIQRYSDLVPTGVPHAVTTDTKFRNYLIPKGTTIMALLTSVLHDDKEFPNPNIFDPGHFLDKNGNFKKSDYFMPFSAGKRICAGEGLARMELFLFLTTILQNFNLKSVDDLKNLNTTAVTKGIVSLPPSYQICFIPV

Cytochrome P450 2C9 = Cytochrome P450 2C9 (Homo sapiens, UniProt P11712); test: Inhibition of CYP2C9 in human liver microsomes incubated for 10 mins by LC-MS/MS analysis; assay type: ADME, Microsome
Cytochrome P450 2D6 = Cytochrome P450 2D6 (Homo sapiens, UniProt P10635); test: Inhibition of CYP2D6 in human liver microsomes incubated for 10 mins by LC-MS/MS analysis; assay type: ADME, Microsome
Cytochrome P450 3A4 = Cytochrome P450 3A4 (Homo sapiens, UniProt P08684); test: Inhibition of CYP3A4 in human liver microsomes incubated for 10 mins by LC-MS/MS analysis; assay type: ADME, Microsome
[6] = Volume of distribution at steady state in Sprague-Dawley rat at 5 mg/kg, po or 1 mg/kg, iv measured for 24 hrs by LC-MS/MS analysis; assay type: ADME, organism-based; conditions: in vivo
[7] = Cmax in Sprague-Dawley rat at 5 mg/kg, po measured for 24 hrs by LC-MS/MS analysis; assay type: ADME, organism-based; design: time 24 hrs, dose 5 mg/kg, route po; conditions: in vivo
[8] = Oral bioavailability in Sprague-Dawley rat at 5 mg/kg measured for 24 hrs by LC-MS/MS analysis; assay type: ADME, organism-based; conditions: in vivo
[9] = Plasma protein binding in Sprague-Dawley rat assessed as free fraction; assay type: ADME, cell-free
[10] = Drug concentration in Sprague-Dawley rat brain assessed as free fraction; assay type: ADME, tissue-based
Brain [11] = test: Ex vivo receptor occupancy at GluN2B receptor in Sprague-Dawley rat brain at 10 mg/kg, po measured after 0.5 hrs by 3 [3H] 1-(azetidin- 1-yl-2[6-(4-fluoro-3-methyl-pheny)pyrrolo[3,2-b]pyridin-1-yl]ethanon based autoradiography relative to control; assay type: functional
Brain [12] = test: Ex vivo receptor occupancy at GluN2B receptor in Sprague-Dawley rat brain at 10 mg/kg, po measured after 2 hrs by 3 [3H] 1-(azetidin- 1-yl-2[6-(4-fluoro-3-methyl-pheny)pyrrolo[3,2-b]pyridin-1-yl]ethanon based autoradiography relative to control; assay type: functional
[13] = Drug concentration in Sprague-Dawley rat brain at 10 mg/kg, po measured after 0.5 hrs; assay type: ADME, organism-based; conditions: read-out: Ct
[14] = Drug concentration in Sprague-Dawley rat brain at 10 mg/kg, po measured after 2 hrs; assay type: ADME, organism-based; conditions: read-out: Ct
[15] = Drug concentration in Sprague-Dawley rat plasma at 10 mg/kg, po measured after 0.5 hrs; assay type: ADME, organism-based
[16] = Drug concentration in Sprague-Dawley rat plasma at 10 mg/kg, po measured after 2 hrs; assay type: ADME, organism-based
[17] = Unbound brain to plasma concentration ratio in Sprague-Dawley rat at 10 mg/kg, po measured after 0.5 hrs; assay type: ADME, organism-based; conditions: brain and plasma, read-out: K(p,uu,brain)
[18] = Unbound brain to plasma concentration ratio in Sprague-Dawley rat at 10 mg/kg, po measured after 2 hrs; assay type: ADME, organism-based; conditions: brain and plasma, read-out: K(p,uu,brain)
[19] = Metabolic stability in human liver microsomes assessed as extraction ratio; assay type: ADME, Microsome; conditions: read-out: ERH
[20] = Metabolic stability in rat liver microsomes assessed as extraction ratio; assay type: ADME, Microsome; conditions: read-out: ERH
[21] = Thermodynamic solubility in aqueous phosphate buffer at pH 2; assay type: physicochemical; conditions: read-out: Therm_solubility
[22] = Thermodynamic solubility in aqueous phosphate buffer at pH 7; assay type: physicochemical; conditions: read-out: Therm_solubility
Brain [23] = test: Ex vivo receptor occupancy at GluN2B receptor in Sprague-Dawley rat brain at 10 mg/kg, po measured after 6 hrs by 3 [3H] 1-(azetidin- 1-yl-2[6-(4-fluoro-3-methyl-pheny)pyrrolo[3,2-b]pyridin-1-yl]ethanon based autoradiography relative to control; assay type: functional
[24] = Drug concentration in Sprague-Dawley rat plasma at 10 mg/kg, po measured after 6 hrs; assay type: ADME, organism-based
Hippocampus [25] = test: Ex vivo receptor occupancy at GluN2B receptor in Sprague-Dawley rat hippocampus administered orally and measured after 0.5 hrs by 3-[3H] 1-(azetidin- 1-yl-2[6-(4-fluoro-3-methyl-pheny)pyrrolo[3,2-b]pyridin-1-yl]ethanon based autoradiography; assay type: functional; conditions: route po
[26] = target: Glutamate NMDA receptor; GRIN1/GRIN2B (Homo sapiens, UniProt Q05586+Q13224); test: Negative allosteric modulation of human GluN1A/GluN2B receptor expressed in T-REX-CHO cells preincubated for 5 mins followed by glutamate and glycine addition and measured after 5 mins by FLIPR assay; assay type: cell-based
Brain [27] = test: Ex vivo receptor occupancy at GluN2B receptor in Sprague-Dawley rat brain at 10 mg/kg, po measured after 0.25 hrs by 3 [3H] 1-(azetidin- 1-yl-2[6-(4-fluoro-3-methyl-pheny)pyrrolo[3,2-b]pyridin-1-yl]ethanon based autoradiography relative to control; assay type: functional
[28] = Drug concentration in Sprague-Dawley rat brain at 10 mg/kg, po measured after 0.25 hrs; assay type: ADME, organism-based; conditions: read-out: Ct
[29] = Drug concentration in Sprague-Dawley rat plasma at 10 mg/kg, po measured after 0.25 hrs; assay type: ADME, organism-based
[30] = Unbound brain to plasma concentration ratio in Sprague-Dawley rat at 10 mg/kg, po measured after 0.25 hrs; assay type: ADME, organism-based; conditions: brain and plasma, read-out: K(p,uu,brain)
Hippocampus [31] = test: Ex vivo receptor occupancy at GluN2B receptor in Sprague-Dawley rat brain hippocampus at 0.01 to 3 mg/kg, po measured after 2 hrs by 3 [3H] 1-(azetidin- 1-yl-2[6-(4-fluoro-3-methyl-pheny)pyrrolo[3,2-b]pyridin-1-yl]ethanon based autoradiography relative to control; assay type: functional; conditions: dose 0.01-3 mg/kg
[32] = Drug metabolism in rat liver microsomes at 0.014 to 0.37 uM incubated for 60 mins; assay type: ADME, Microsome; conditions: 1 h, dose 0.014-0.37 µM
[33] = Drug metabolism in human liver microsomes assessed as O-dearylation mediated (1-(4-chloro-3-(difluoromethoxy)phenyl)-1H-1,2,3-triazol-4-yl)methanol metabolite formation at 0.1 uM in presence of NADPH; assay type: ADME, Microsome
[34] = Drug metabolism in rat hepatocytes at 0.01 to 0.1 uM incubated for 4 hrs; assay type: ADME, cell-based, Hepatocyte; conditions: dose 0.01-0.1 µM
[35] = Drug metabolism in human liver microsomes assessed as O-dearylation mediated 1-(4-chloro-3-(difluoromethoxy)phenyl)-1H-1,2,3-triazole-4-carboxylic acid metabolite formation at 0.1 uM in presence of NADPH; assay type: ADME, Microsome

Chain of Voltage-gated inwardly rectifying potassium channel KCNH2 (Q12809 whole entry): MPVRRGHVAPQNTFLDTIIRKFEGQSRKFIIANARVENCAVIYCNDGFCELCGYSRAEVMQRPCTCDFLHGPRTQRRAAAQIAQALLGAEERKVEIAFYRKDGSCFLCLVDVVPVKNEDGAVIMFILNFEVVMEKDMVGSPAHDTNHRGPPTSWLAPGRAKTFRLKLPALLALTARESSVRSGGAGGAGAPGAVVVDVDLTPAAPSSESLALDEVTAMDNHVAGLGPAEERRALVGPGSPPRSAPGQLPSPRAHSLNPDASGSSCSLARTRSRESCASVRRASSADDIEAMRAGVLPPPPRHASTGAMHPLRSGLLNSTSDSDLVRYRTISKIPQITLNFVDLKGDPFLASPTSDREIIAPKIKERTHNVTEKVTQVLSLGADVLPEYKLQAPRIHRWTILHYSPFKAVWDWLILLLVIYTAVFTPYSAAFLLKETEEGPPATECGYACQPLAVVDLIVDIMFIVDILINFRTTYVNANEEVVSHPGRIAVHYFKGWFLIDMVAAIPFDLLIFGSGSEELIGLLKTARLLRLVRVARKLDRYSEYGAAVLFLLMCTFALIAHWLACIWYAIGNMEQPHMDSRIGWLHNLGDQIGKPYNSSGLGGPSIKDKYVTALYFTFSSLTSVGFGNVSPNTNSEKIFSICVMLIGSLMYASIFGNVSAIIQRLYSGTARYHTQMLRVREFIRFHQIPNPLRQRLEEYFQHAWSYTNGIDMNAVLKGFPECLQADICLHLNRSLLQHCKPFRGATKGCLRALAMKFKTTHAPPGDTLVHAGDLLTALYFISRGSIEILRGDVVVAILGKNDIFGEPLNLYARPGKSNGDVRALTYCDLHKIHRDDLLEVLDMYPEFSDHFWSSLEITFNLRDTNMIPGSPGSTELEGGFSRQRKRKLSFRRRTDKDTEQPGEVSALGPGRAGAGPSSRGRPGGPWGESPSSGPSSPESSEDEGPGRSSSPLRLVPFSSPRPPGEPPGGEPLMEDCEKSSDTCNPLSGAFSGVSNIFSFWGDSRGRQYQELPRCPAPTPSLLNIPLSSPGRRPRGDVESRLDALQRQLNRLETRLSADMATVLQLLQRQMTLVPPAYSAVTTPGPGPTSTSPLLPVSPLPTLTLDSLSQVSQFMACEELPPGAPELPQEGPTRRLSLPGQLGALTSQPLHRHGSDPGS
Chain of Cytochrome P450 2C9 (P11712 whole entry): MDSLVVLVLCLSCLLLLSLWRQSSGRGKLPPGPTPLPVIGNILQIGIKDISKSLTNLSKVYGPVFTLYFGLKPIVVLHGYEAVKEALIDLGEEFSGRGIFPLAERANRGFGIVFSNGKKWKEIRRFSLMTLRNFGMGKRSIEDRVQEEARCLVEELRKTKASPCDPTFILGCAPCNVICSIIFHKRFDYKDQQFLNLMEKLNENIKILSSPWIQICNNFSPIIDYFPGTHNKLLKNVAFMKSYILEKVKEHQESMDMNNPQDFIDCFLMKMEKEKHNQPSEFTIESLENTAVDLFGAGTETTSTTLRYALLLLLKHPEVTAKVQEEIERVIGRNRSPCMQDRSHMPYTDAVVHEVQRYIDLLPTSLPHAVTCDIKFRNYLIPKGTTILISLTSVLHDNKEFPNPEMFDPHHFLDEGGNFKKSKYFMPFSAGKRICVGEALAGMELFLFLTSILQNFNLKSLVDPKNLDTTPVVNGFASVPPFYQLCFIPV
Chain of Glutamate receptor ionotropic, NMDA 2A (Q12879 whole entry, one chain of several): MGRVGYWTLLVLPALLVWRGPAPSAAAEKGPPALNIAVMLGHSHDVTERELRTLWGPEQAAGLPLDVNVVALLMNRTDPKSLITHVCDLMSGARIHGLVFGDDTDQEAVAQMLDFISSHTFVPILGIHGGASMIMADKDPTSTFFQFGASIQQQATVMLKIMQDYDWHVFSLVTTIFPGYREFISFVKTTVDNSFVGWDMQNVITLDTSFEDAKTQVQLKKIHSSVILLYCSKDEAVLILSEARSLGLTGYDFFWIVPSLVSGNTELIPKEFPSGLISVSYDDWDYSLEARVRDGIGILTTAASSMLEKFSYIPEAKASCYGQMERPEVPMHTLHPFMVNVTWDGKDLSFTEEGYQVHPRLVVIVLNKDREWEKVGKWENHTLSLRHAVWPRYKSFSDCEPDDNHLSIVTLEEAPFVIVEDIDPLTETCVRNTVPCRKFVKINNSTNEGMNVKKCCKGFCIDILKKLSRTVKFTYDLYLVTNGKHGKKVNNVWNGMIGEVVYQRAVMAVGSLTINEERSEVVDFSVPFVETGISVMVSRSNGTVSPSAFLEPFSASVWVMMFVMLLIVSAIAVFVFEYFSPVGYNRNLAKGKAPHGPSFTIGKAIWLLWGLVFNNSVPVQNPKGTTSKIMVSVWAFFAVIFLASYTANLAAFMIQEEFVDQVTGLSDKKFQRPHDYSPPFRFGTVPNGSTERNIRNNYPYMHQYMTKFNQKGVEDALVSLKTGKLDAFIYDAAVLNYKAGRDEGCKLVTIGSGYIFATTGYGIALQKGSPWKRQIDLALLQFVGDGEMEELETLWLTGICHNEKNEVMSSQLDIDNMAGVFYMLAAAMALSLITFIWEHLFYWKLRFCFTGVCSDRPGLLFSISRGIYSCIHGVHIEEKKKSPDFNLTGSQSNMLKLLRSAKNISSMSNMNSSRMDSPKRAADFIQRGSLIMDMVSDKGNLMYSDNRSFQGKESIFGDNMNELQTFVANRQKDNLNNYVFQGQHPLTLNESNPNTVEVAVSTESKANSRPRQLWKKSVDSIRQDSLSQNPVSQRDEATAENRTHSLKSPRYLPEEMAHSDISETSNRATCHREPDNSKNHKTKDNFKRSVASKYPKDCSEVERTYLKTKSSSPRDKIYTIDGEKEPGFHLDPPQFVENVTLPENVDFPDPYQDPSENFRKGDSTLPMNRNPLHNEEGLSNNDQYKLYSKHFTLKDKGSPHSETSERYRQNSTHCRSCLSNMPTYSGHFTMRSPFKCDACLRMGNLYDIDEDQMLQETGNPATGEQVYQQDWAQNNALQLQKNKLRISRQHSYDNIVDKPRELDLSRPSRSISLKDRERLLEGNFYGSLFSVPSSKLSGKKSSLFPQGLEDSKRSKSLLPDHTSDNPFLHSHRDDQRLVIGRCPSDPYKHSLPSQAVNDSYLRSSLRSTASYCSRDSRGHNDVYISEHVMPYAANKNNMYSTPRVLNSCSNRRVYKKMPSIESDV
Chain of Cytochrome P450 2C19 (P33261 whole entry): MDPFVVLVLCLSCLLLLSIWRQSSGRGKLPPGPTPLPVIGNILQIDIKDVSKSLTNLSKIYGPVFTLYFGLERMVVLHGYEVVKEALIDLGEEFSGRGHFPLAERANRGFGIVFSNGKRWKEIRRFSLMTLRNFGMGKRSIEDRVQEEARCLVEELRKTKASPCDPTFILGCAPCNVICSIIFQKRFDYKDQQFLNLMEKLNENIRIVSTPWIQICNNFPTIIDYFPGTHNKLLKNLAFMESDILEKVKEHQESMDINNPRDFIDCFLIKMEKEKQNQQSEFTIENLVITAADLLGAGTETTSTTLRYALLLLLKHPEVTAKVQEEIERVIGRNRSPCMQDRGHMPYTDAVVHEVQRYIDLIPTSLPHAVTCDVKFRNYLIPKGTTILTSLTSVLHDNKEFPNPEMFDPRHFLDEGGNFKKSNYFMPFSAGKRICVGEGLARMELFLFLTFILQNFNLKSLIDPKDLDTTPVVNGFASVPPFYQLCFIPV
Chain of Cytochrome P450 2D6 (P10635 whole entry): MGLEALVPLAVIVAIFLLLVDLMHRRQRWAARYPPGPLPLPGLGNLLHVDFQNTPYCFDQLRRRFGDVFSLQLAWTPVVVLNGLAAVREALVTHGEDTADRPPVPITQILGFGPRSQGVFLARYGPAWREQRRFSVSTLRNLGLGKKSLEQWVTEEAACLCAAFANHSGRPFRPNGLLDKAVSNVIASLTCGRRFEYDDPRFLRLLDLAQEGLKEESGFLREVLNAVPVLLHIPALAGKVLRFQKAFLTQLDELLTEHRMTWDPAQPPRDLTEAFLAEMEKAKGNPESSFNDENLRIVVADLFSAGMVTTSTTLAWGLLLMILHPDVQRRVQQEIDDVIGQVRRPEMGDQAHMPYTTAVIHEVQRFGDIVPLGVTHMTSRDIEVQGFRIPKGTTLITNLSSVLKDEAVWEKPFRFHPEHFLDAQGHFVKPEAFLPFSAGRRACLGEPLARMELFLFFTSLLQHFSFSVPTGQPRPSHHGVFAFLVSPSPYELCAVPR
Chain of Cytochrome P450 3A4 (P08684 whole entry): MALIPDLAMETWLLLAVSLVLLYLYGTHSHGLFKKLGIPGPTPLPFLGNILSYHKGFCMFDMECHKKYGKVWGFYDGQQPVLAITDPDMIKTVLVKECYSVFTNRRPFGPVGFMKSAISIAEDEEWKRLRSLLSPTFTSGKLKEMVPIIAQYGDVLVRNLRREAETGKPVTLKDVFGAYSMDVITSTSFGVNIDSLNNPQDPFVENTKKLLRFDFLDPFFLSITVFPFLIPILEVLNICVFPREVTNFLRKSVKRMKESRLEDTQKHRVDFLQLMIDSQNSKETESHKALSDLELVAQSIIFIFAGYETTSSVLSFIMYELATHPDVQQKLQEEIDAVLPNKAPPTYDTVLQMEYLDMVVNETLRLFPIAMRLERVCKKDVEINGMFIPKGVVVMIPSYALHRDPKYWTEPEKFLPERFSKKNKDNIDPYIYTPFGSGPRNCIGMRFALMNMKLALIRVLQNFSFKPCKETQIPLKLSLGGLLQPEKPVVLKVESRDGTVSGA

Row | SMILES | IC50 [1] [µM] | IC50 [2] [µM] | IC50 [3] [µM] | Ki [4] [nM] | IC50 [5] [µM] | efflux ratio at 1 h, 5 µM (MDR1 (P-gp)) | IC50 (Cytochrome P450 1A2) [µM] | IC50 (Cytochrome P450 2C19) [µM] | IC50 (Cytochrome P450 2C8) [µM] | IC50 (Cytochrome P450 2C9) [µM] | IC50 (Cytochrome P450 2D6) [µM] | Vdss [6] [L/kg] | Cmax [7] [ng/mL] | bioavailability [8] [%] | fraction unbound [9] | fraction unbound [10] | Occ (Brain [11]) [%] | Occ (Brain [12]) [%] | concentration at 0.5 h [13] [ng/g] | concentration at 2 h [14] [ng/g] | further results
1 | COCc1ccnc(OCc2cn(-c3ccc(F)c(OC(F)F)c3)nn2)n1 | > 10 | > 10 | > 10 | 32 | > 10 | 1.1 | > 10 | > 10 | > 10 | > 10 | > 10 | 0.4 | 1630 | 42 | 0.0236 | 0.0882 | 77 | 54 | 340 | 47 | IC50 (Cytochrome P450 3A4): > 10 µM; concentration at 0.5 h [15]: 1980 ng/mL; concentration at 2 h [16]: 235 ng/mL; Kp uu at 0.5 h [17]: 0.65; Kp uu at 2 h [18]: 0.76; hepatic extraction ratio [19]: 0.47; hepatic extraction ratio [20]: 0.6; solubility thermodynamic [21]: 280 µM (≈ 107 µg/mL); solubility thermodynamic [22]: 260 µM (≈ 99.1 µg/mL); Occ (Brain [23]): 8%; concentration at 6 h [24]: 6.7 ng/mL; ED50 (Hippocampus [25]): 1.7 mg/kg
2 | FC(F)Oc1cc(-n2cc(COc3ncccn3)nn2)ccc1Cl | > 10 | > 10 | > 10 | 94 | > 10 | 1 | > 10 | > 10 | > 10 | > 10 | > 10 | 0.51 | 808 | 78 | 0.024 | 0.051 | 92 | 85 | 1920 | 3010 | IC50 [26]: 11 nM; Occ (Brain [27]): 71%; concentration at 0.25 h [28]: 1290 ng/g; concentration at 0.25 h [29]: 3040 ng/mL; concentration at 0.5 h [15]: 5120 ng/mL; concentration at 2 h [16]: 8650 ng/mL; Kp uu at 0.25 h [30]: 0.91; Kp uu at 0.5 h [17]: 0.78; Kp uu at 2 h [18]: 0.72; Occ (Hippocampus [31]): <10%; Drug metabolism [32]: Metabolite_Detected; Drug metabolism [33]: Metabolite_Detected; Drug metabolism [34]: Metabolite_Detected; Drug metabolism [35]: Metabolite_Detected
